Experimental data taken from PubChem BioAssay AID720607 (Broad Institute, 2013).
Results filed as inconclusive are left out.

Tested on: CCRF-CEM viability, CellTiter-Glo ATP luminescence, 8-48 h
Experiment: CCRF-CEM leukemia cell viability loss, dose response, HRAS target identification, CellTiter-Glo ATP luminescence, 8/24/48 h, dry powder (AID 720607)

With `COC(=O)c1ccc([C@@H]2c3[nH]c4ccccc4c3C[C@@H](C(=O)OC)N2C(=O)CCl)cc1` the AC50 (measured here: 8 h treatment) was 272 nM, the AC50 (measured here: 24 h treatment) was 19.9 nM and the AC50 (measured here: 48 h treatment) was 23.4 nM.
For `Cc1onc(C(=O)N2CCN(C(c3ccc(Cl)cc3)c3ccc(Cl)cc3)CC2)c1[N+](=O)[O-]`, the AC50 (measured here: 8 h treatment) was 553 nM, the AC50 (measured here: 24 h treatment) was 68.9 nM and the AC50 (measured here: 48 h treatment) was 78.8 nM.
`C#CCCCC(=O)NCCOCCOCCOc1ccc(N(C(=O)CCl)C(C(=O)NCCc2ccccc2)c2cccs2)cc1Cl` (stereo not given) gave an AC50 (measured here: 8 h treatment) of 2980 nM, an AC50 (measured here: 24 h treatment) of 588 nM and an AC50 (measured here: 48 h treatment) of 565 nM.
Compound `CC(C)(C)OC(=O)NCCOCCOCCOc1ccc(N(C(=O)CCl)C(C(=O)NCCc2ccccc2)c2cccs2)cc1Cl` (stereo not given) has an AC50 (measured here: 8 h treatment) of 454 nM, an AC50 (measured here: 24 h treatment) of 34.4 nM and an AC50 (measured here: 48 h treatment) of 41.5 nM.
With `COc1ccc(N(C(=O)CCl)C(C(=O)NCCc2ccccc2)c2cccs2)cc1Cl` (stereo not given) the AC50 (measured here: 8 h treatment) was 321 nM, the AC50 (measured here: 24 h treatment) was 39 nM and the AC50 (measured here: 48 h treatment) was 38.7 nM.
